Results published in patent publication US11339144B2 (Navitor Pharmaceuticals, Inc., priority 2017, dated 2022).

Experiments:
[1] = molecular target: HA-GST-Rheb (GTP-γ-S loaded) activating mTORC1 (Homo sapiens (Human), UniProt Q15382); assay: Rheb-dependent in vitro kinase assay (Rheb-IVK; LanthaScreen or Western readout); format: biochemical; details: Rheb-dependent in vitro kinase assay; read-out: IVK IC50
Rheb = Rheb (Homo sapiens (Human), UniProt Q15382); assay: Affinity Selection Mass Spectrometry (ASMS); format: binding; details: affinity (R3/R0) in Affinity Selection Mass Spectrometry assay
Rheb, sequence (Q15382 1-169 limits assumed): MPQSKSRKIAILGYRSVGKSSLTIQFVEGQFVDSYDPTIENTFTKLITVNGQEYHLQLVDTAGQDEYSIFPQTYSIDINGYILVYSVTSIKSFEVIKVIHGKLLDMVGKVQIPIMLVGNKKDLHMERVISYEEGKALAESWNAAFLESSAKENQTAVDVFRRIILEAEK
How it was run: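 Human Rheb (60 μM) with GDP (180 μM) and each compound at 2 μM, protein-plus versus protein-minus, incubated 30 min at room temperature, then washed by 10 kDa ultrafiltration. Retained ligand was released with MeCN and detected by UPLC-Q-TOF MS.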

HA-GST-Rheb (GTP-γ-S loaded) activating mTORC1, sequence (Q15382 1-181): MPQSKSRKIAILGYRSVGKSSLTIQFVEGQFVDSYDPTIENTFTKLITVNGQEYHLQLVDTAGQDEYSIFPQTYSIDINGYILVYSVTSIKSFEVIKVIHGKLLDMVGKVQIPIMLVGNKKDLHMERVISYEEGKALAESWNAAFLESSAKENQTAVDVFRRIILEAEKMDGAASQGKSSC

| SMILES | IC50 [1] [µM] | ASMS (R3/R0) (Rheb) |
| --- | --- | --- |
| OC1CC(COc2c(Cl)c(Cl)cc3c2nc2n3COC2)CC1O (stereo not shown) [I-373, 4-((6,7-dichloro-1,3-dihydrobenzo[d]oxazolo[3,4-a]imidazol-5-yloxy)methyl)cyclopentane-1,2-diol] | 10 to 100 | C (an affinity (R3/R0)<20%) |
| CN1CCC[C@@H]1CNC(=O)c1ccc(-c2nc3cc(Cl)c(Cl)cc3[nH]2)cc1 [I-341] | > 100 | B (an affinity (R3/R0) between 100% and 20%) |
| OCc1nc2c(OC[C@H]3CCCC[C@@H]3O)c(Cl)c(Cl)cc2[nH]1 (single isomer, unassigned) [I-388] | 10 to 100 | B (an affinity (R3/R0) between 100% and 20%) |
| CN(C)C(=O)c1ccc(Cn2c(C(=O)O)cc3c(Br)cc(Sc4cccc(OC(F)(F)F)c4)cc32)cc1 [I-20, 4-bromo-1-(4-(dimethylcarbamoyl)benzyl)-6-(3-(trifluoromethoxy)phenylthio)-1H-indole-2-carboxylic acid] | < 10 | A (an affinity (R3/R0)>100%) |
| CN(C)C(=O)c1ccc(Cn2c(C(=O)O)cc3c(SCCc4ccc(Cl)c(Cl)c4)cc(SCCc4ccc(Cl)c(Cl)c4)cc32)cc1 [I-16, 4,6-bis(3,4-dichlorophenethylthio)-1-(4-(dimethylcarbamoyl)benzyl)-1H-indole-2-carboxylic acid] | < 10 | B (an affinity (R3/R0) between 100% and 20%) |
| CN(C)C(=O)c1ccc(Cn2c(C(=O)O)cc3cc(-c4ccccc4)c(Sc4ccc(Cl)c(Cl)c4)cc32)cc1 [I-2] | < 10 | B (an affinity (R3/R0) between 100% and 20%) |
| Clc1cc2nc(-c3ccnc4[nH]ccc34)[nH]c2cc1Cl [I-359, 5,6-dichloro-2-(1H-pyrrolo[2,3-b]pyridin-4-yl)-1H-benzo[d]imidazole] | 10 to 100 | A (an affinity (R3/R0)>100%) |
| OCc1nc2c(OCC3CCCCC3O)cc(Cl)cc2[nH]1 (stereo not shown) [I-390, 2-((6-chloro-2-(hydroxymethyl)-1H-benzo[d]imidazol-4-yloxy)methyl)cyclohexanol] | 100 to 300 | C (an affinity (R3/R0)<20%) |
| CN1CCN(C(=O)c2ccc(Cn3c(C(=O)O)cc4c(Br)cc(Sc5ccc(Cl)c(Cl)c5)cc43)cc2)CC1 [I-52, 4-bromo-6-(3,4-dichlorophenylthio)-1-(4-(4-methylpiperazine-1-carbonyl)benzyl)-1H-indole-2-carboxylic acid] | 10 to 100 | B (an affinity (R3/R0) between 100% and 20%) |
| OCCc1cc2c(Oc3ccccc3)c(Cl)ccc2[nH]1 [I-261, 2-(5-chloro-4-phenoxy-1H-indol-2-yl)ethanol] | 10 to 100 | C (an affinity (R3/R0)<20%) |
| Nc1cc(CCOc2c(Cl)c(Cl)cc3[nH]c(CO)nc23)ccn1 [I-382] | 100 to 300 | C (an affinity (R3/R0)<20%) |
| Nc1ccc(-c2nc3cc(Cl)c(Cl)cc3[nH]2)cc1 [I-360] | > 100 | B (an affinity (R3/R0) between 100% and 20%) |
| CN1CCN(c2cccc(-c3nc4cc(Cl)c(Cl)cc4[nH]3)c2)CC1 [I-367] | > 100 | B (an affinity (R3/R0) between 100% and 20%) |
| OCc1nc2c(OC[C@H]3CCCC[C@H]3O)c(Cl)c(Cl)cc2[nH]1 (single isomer, unassigned) [I-389] | > 100 | C (an affinity (R3/R0)<20%) |
| OCc1cc2c(Cl)cc(Oc3ccccc3)cc2n1Cc1nc[nH]n1 [I-226] | > 100 | C (an affinity (R3/R0)<20%) |
| CN(CCO)C(=O)c1ccc(Cn2c(C(=O)O)cc3c(Br)cc(Oc4ccccc4)cc32)cc1 [I-69, 4-bromo-1-(4-((2-hydroxyethyl)(methyl)carbamoyl)benzyl)-6-phenoxy-1H-indole-2-carboxylic acid] | 10 to 100 | C (an affinity (R3/R0)<20%) |

Further lines, with some results ahead:

| IC50 [1] [µM] | SMILES | ASMS (R3/R0) (Rheb) |
| --- | --- | --- |
| 10 to 100 | O=C(NCc1ccccn1)c1cc2c(Sc3ccc(Cl)cc3)cc(Cl)cc2[nH]1 [I-149, 6-chloro-4-(4-chlorophenylthio)-N-(pyridin-2-ylmethyl)-1H-indole-2-carboxamide] | B (an affinity (R3/R0) between 100% and 20%) |
| > 100 | O=C(NCCN1CCN(c2ccccc2)CC1)c1cc2c(Sc3ccc(Cl)cc3Cl)cc(Cl)cc2[nH]1 [I-119] | B (an affinity (R3/R0) between 100% and 20%) |
| 100 to 300 | O=C(O)c1cc2c(-c3ccccc3)cc(Cl)cc2[nH]1 [I-54, 6-chloro-4-phenyl-1H-indole-2-carboxylic acid] | C (an affinity (R3/R0)<20%) |
| > 100 | COC(=O)c1cc2c(Sc3ccc(Br)cc3)cc(Cl)cc2[nH]1 [I-99] | B (an affinity (R3/R0) between 100% and 20%) |
| 10 to 100 | O=C(NO)c1cc2c(Sc3ccc(Cl)cc3)cc(Cl)cc2[nH]1 [I-177, 6-chloro-4-(4-chlorophenylthio)-N-hydroxy-1H-indole-2-carboxamide] | A (an affinity (R3/R0)>100%) |
| 10 to 100 | OCc1cc2c(Br)cc(SCc3ccc(Cl)cc3)cc2[nH]1 [I-145, (4-bromo-6-(4-chlorobenzylthio)-1H-indol-2-yl)methanol] | B (an affinity (R3/R0) between 100% and 20%) |
| > 100 | CN(C)C(=O)c1ccc(Cn2c(C(=O)O)cc3c(Br)cc(Sc4ccc(C(F)(F)F)cc4)cc32)cc1 [I-22] | B (an affinity (R3/R0) between 100% and 20%) |
| > 100 | Clc1cc2nc(-c3ccc(-c4ccncc4)cc3)[nH]c2cc1Cl [I-372] | A (an affinity (R3/R0)>100%) |
| 10 to 100 | OCc1cc2c(Oc3ccccc3)c(Cl)c(Cl)cc2[nH]1 [I-250, (5,6-Dichloro-4-phenoxy-1H-indol-2-yl)methanol] | B (an affinity (R3/R0) between 100% and 20%) |
| < 10 | O=C(O)c1cc2c(Oc3ccc(C4CCCCC4)cc3)cc(Cl)cc2[nH]1 [I-125, 6-chloro-4-(4-cyclohexylphenoxy)-1H-indole-2-carboxylic acid] | B (an affinity (R3/R0) between 100% and 20%) |
| > 3 | CN(C)C(=O)c1ccc(Cn2c(-c3nn[nH]n3)cc3c(Br)cc(Sc4ccc(Cl)c(Cl)c4)cc32)cc1 [I-14] | B (an affinity (R3/R0) between 100% and 20%) |
| < 10 | O=C(O)c1cc2c(Sc3ccc(Cl)cc3Cl)cc(Cl)cc2[nH]1 [I-157, 6-chloro-4-(2,4-dichlorophenylthio)-1H-indole-2-carboxylic acid] | B (an affinity (R3/R0) between 100% and 20%) |
| 10 to 100 | OCc1cc2c(Br)cc(OCc3ccccc3)cc2[nH]1 [I-241, (6-(Benzyloxy)-4-bromo-1H-indol-2-yl)methanol] | B (an affinity (R3/R0) between 100% and 20%) |
| 10 to 100 | O=C(O)c1cc2c(Sc3ccc(Br)cc3)cc(Cl)cc2[nH]1 [I-98, 4-(4-bromophenylthio)-6-chloro-1H-indole-2-carboxylic acid] | B (an affinity (R3/R0) between 100% and 20%) |
| 10 to 100 | Cn1c(C(=O)O)cc2c(Sc3ccc(Cl)cc3)cc(Cl)cc21 [I-207, 6-chloro-4-(4-chlorophenylthio)-1-methyl-1H-indole-2-carboxylic acid] | B (an affinity (R3/R0) between 100% and 20%) |
| > 100 | CNCc1cc2c(Br)cc(Sc3ccc(Cl)c(Cl)c3)cc2n1Cc1ccc(C(=O)N(C)C)cc1 [I-38] | A (an affinity (R3/R0)>100%) |
